The values that follow come from patent publication US9156827B2, “Anticancer agent” (THE UNIVERSITY OF TOKYO, priority 2010, dated 2015).

What is called inhibition is the share of the control response that was lost under treatment. Higher therefore signals strong suppression.

For one experiment, the target named is pim-1 kinase (Homo sapiens, UniProt P11309). In words: Measurement of pim-1 kinase inhibitory activity (fluorescent substrate peptide, capillary electrophoresis). In kind it is biochemical. The note with it: 0.1 μM of each compound, 30 μM ATP, 1.5 μM substrate peptide, room temperature 2 hours. The procedure: Measurement of Pim-1 Kinase Inhibitory Activity
The result of the reaction was determined by quantifying the substrate and the phosphorylated reaction product separated by capillary electrophoresis based on difference in charges of the substances (EZ Reader II, Caliper Life Sciences, was used).

Experiment [1] deals with Human acute myeloid leukemia MV4-11 cells. In words: Cell proliferation-suppressing activity, chromogenic method (Cell Counting Kit-8). The experiment is classed as cell-based. The note with it: compound 1 μM, 48 hours, Cell Counting Kit-8, absorbance 450 nm. The procedure: Measurement of Cell Proliferation-Suppressing Activity (Chromogenic Method)
Human acute myeloid leukemia MV4-11 cells (2×10^4 cells) are inoculated on a 96-well microtiter plate. Each compound is added at a final concentration of 1 μM on the next day, and the cells are cultured for additional 48 hours. Absorbance is measured at 450 nm by using Cell Counting Kit-8 (Nacalai Tesque) to calculate the cell proliferation-suppressing activity.
(Tetrazolium assays rely on reduction of a dye to a coloured formazan, in cell work by metabolically active cells.)

Each structure is given as a SMILES string.

pim-1 kinase, sequence (P11309 whole entry): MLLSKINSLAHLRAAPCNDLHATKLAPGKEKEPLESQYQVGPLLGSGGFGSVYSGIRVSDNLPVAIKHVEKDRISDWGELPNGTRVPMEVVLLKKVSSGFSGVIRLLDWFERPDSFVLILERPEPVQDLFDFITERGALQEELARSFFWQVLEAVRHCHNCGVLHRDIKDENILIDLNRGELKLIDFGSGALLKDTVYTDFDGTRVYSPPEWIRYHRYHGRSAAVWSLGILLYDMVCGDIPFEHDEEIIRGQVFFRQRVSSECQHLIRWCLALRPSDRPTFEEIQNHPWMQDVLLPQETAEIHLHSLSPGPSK

On pim-1 kinase (Table 1), `O=C1/C(=C/c2c[nH]c3ccccc23)Oc2c1ccc(O)c2CN1CCCNCC1` [Compound A55, (Z)-7-[(1,4-Diazepan-1-yl)methyl]-2-[(1H-indol-3-yl)methylene]-6-hydroxybenzofuran-3(2H)-one] registered an inhibition at 0.1 µM of 46%. This compound also had an inhibition at 1 µM in experiment [1] (Table 6) of 79%.
In the case of `O=C1/C(=C/c2c[nH]c3ccccc23)Oc2c(CN3CCNCC3)cccc21` [Compound A56, (Z)-2-[(1H-indol-3-yl)methylene]-7-(piperazin-1-ylmethyl)benzofuran-3(2H)-one], the inhibition at 0.1 µM against pim-1 kinase (Table 1) is 80%. For the same compound, in experiment [1] (Table 6), testing at 1 µM gave an inhibition of 43%.
The corresponding values for `COc1ccc2c(c1CN1CCNCC1)O/C(=C\c1cn(S(=O)(=O)c3ccc(C)cc3)c3ccccc13)C2=O` [Compound A57, (Z)-6-Methoxy-7-(piperazin-1-ylmethyl)-2-[(1-tosyl-1H-indol-3-yl)methylene]benzofuran-3(2H)-one] are 28% and 37%.
Consider `O=C1/C(=C/c2c[nH]c3ncccc23)Oc2c(CN3CCNCC3)cccc21` [Compound A58, (Z)-2-[(1H-Pyrrolo[2,3-b]pyridin-3-yl)methylene]-7-(piperazin-1-ylmethyl)benzofuran-3(2H)-one], for which the inhibition at 0.1 µM against pim-1 kinase (Table 1) was found to be 92%. The compound further returned an inhibition at 1 µM in experiment [1] (Table 6) of 72%.
Taken in the same sequence, the figures for `CCOc1ccc2c(c1CN1CCNCC1)O/C(=C\c1c[nH]c3ccccc13)C2=O` [Compound A59, (Z)-2-[(1H-Indol-3-yl)methylene]-6-ethoxy-7-(piperazin-1-ylmethyl)benzofuran-3(2H)-one] were 92% and 95%.
Taken in the same sequence, the figures for `CCCOc1ccc2c(c1CN1CCNCC1)O/C(=C\c1c[nH]c3ccccc13)C2=O` [Compound A60, (Z)-2-((1H-Indol-3-yl)methylene)-7-(piperazin-1-ylmethyl)-6-propoxybenzofuran-3(2H)-one] were 84% and 91%.
The corresponding values for `O=C1/C(=C/c2c[nH]c3ccccc23)Oc2c1ccc(OCc1ccccc1)c2CN1CCNCC1` [Compound A61, (Z)-2-[(1H-Indol-3-yl)methylene]-6-(benzyloxy)-7-(piperazin-1-ylmethyl)benzofuran-3(2H)-one] are 66% and 58%.
With `O=C1/C(=C/c2n[nH]c3ccc(F)cc23)Oc2c1ccc(O)c2CN1CCNCC1` [Compound B8, (Z)-6-Hydroxy-7-(piperazin-1-ylmethyl)-2-[(5-fluoro-1H-indazol-3-yl)methylene]benzofuran-3(2H)-one], the inhibition at 0.1 µM against pim-1 kinase (Table 2) came to 81%.
On the same count and under the same terms, with `O=C1/C(=C/c2n[nH]c3ccc(Cl)cc23)Oc2c1ccc(O)c2CN1CCNCC1` [Compound B9, (Z)-6-Hydroxy-7-(piperazin-1-ylmethyl)-2-[(5-chloro-1H-indazol-3-yl)methylene]benzofuran-3(2H)-one] the figure was 93%.
At pim-1 kinase (Table 2), `O=C1/C(=C/c2n[nH]c3ccc(Br)cc23)Oc2c1ccc(O)c2CN1CCNCC1` [Compound B10, (Z)-6-Hydroxy-7-(piperazin-1-ylmethyl)-2-[(5-bromo-1H-indazol-3-yl)methylene]benzofuran-3(2H)-one] came in with an inhibition at 0.1 µM of 94%.
The same measure, in the same setting: under `COc1ccc2[nH]nc(/C=C3\Oc4c(ccc(O)c4CN4CCNCC4)C3=O)c2c1` [Compound B11, (Z)-6-Hydroxy-7-(piperazin-1-ylmethyl)-2-[(5-methoxy-1H-indazol-3-yl)methylene]benzofuran-3(2H)-one] stands 87%.
Still for that read-out and setting: under `O=C1/C(=C/c2n[nH]c3ccc(OC(F)(F)F)cc23)Oc2c1ccc(O)c2CN1CCNCC1` [Compound B12, (Z)-6-Hydroxy-7-(piperazin-1-ylmethyl)-2-{[5-(trifluoromethoxy)-1H-indazol-3-yl]methylene}benzofuran-3(2H)-one] stands 90%; under `O=C1/C(=C/c2n[nH]c3ccccc23)Oc2c1cc(Cl)c(O)c2CN1CCNCC1` [Compound B13, (Z)-2-[(1H-Indazol-3-yl)methylene]-5-chloro-6-hydroxy-7-(piperazin-1-ylmethyl)benzofuran-3(2H)-one], 88%; under `O=C1/C(=C/c2n[nH]c3ccc(F)cc23)Oc2c1cc(Cl)c(O)c2CN1CCNCC1` [Compound B14, (Z)-5-Chloro-2-[(5-fluoro-1H-indazol-3-yl)methylene]-6-hydroxy-7-(piperazin-1-ylmethyl)benzofuran-3(2H)-one], 80%.
In the case of `O=C1/C(=C/c2n[nH]c3ccc(Cl)cc23)Oc2c1cc(Cl)c(O)c2CN1CCNCC1` [Compound B15, (Z)-5-Chloro-2-[(5-chloro-1H-indazol-3-yl)methylene]-6-hydroxy-7-(piperazin-1-ylmethyl)benzofuran-3(2H)-one], at pim-1 kinase (Table 2), the inhibition at 0.1 µM was 90%.
The same measure, in the same setting: with `O=C1/C(=C/c2n[nH]c3ccc(Br)cc23)Oc2c1cc(Cl)c(O)c2CN1CCNCC1` [Compound B16, (Z)-5-Chloro-2-[(5-bromo-1H-indazol-3-yl)methylene]-6-hydroxy-7-(piperazin-1-ylmethyl)benzofuran-3(2H)-one] the figure was 93%; with `COc1ccc2c(c1C(C)N1CCNCC1)O/C(=C\c1n[nH]c3ccccc13)C2=O` (stereo not drawn) [Compound B20, (Z)-2-[(1H-Indazol-3-yl)methylene]-6-methoxy-7-[1-(piperazin-1-yl)-ethyl]benzofuran-3(2H)-one], 95%.
Consider `O=C1/C(=C/c2n[nH]c3ccccc23)Oc2c1ccc(OCc1ccccc1)c2CN1CCNCC1` [Compound B28, (Z)-2-[(1H-Indazol-3-yl)methylene]-6-(benzyloxy)-7-(piperazin-ylmethyl)benzofuran-3(2H)-one], for which the “Pim-1 kinase inhibitory activity (%)” value on pim-1 kinase (Table 2) was 92%.
On pim-1 kinase (Table 2), `COc1ccc2c(c1CN1CCN(C)CC1)O/C(=C\c1n[nH]c3ccccc13)C2=O` [Compound B32, (Z)-2-[(1H-Indazol-3-yl)methylene]-6-methoxy-7-[(4-methylpiperazin-1-yl)methyl]benzofuran-3(2H)-one] came in with an inhibition at 0.1 µM of 63%.
On the same count and under the same terms, under `COc1ccc2c(c1CN1CCOCC1)O/C(=C\c1n[nH]c3ccccc13)C2=O` [Compound B33, (Z)-2-[(1H-Indazol-3-yl)methylene]-6-methoxy-7-(morpholinomethyl)benzofuran-3(2H)-one] stands 39%.
Same read-out and setting: with `O=C1/C(=C/c2n[nH]c3ccccc23)Oc2c1ccc(OCCO)c2CN1CCNCC1` [Compound B34, (Z)-2-[(1H-Indazol-3-yl)methylene]-6-(2-hydroxyethoxy)-7-(piperazin-1-ylmethyl)benzofuran-3(2H)-one] the figure was 94%; with `O=C1/C(=C/c2n[nH]c3ccccc23)Oc2c1ccc(O)c2C(=O)N1CCNCC1` [Compound B36, (Z)-2-[(1H-Indazol-3-yl)methylene]-6-hydroxy-7-(piperazine-1-carbonyl)benzofuran-3(2H)-one], 31%; with `CN1CCN(Cc2cc(Cl)cc3c2O/C(=C\c2n[nH]c4ccccc24)C3=O)CC1` [Compound B40, (Z)-2-[(1H-Indazol-3-yl)methylene]-5-chloro-7-[(4-methylpiperazin-1-yl)methyl]benzofuran-3(2H)-one], 14%.
Take `O=C1/C(=C/c2n[nH]c3ccccc23)Oc2c(CN3CCNCC3)cccc21` [Compound B45, (Z)-2-[(1H-Indazol-3-yl)methylene]-7-(piperazin-1-ylmethyl)benzofuran-3(2H)-one]: the inhibition at 0.1 µM against pim-1 kinase (Table 2) was 79%. In experiment [1] (Table 7), this compound registered an inhibition at 1 µM of 28%.
Taken in the same sequence, the figures for `COc1ccc2c(c1C#CCN1CCNCC1)O/C(=C\c1n[nH]c3ccccc13)C2=O` [Compound B46, (Z)-2-[(1H-Indazol-3-yl)methylene]-6-methoxy-7-[3-(piperazin-1-yl)prop-1-ynyl]benzofuran-3(2H)-one] were 86% and 97%.
The corresponding values for `COc1ccc2c(c1/C=C\CN1CCNCC1)O/C(=C\c1n[nH]c3ccccc13)C2=O` [Compound B47, (Z)-2-[(1H-Indazol-3-yl)methylene]-6-methoxy-7-[(Z)-3-(piperizin-1-yl)prop-1-enyl]benzofuran-3(2H)-one (Z)-2-[(1H-Indazol-3-yl)methylene]-6-methoxy-7-[(Z)-3-(piperazin-1-yl)prop-1-enyl]benzofuran-3(2H)-one] are 84% and 99%.
Taken in the same sequence, the figures for `COc1ccc2c(c1CCCN1CCNCC1)O/C(=C\c1n[nH]c3ccccc13)C2=O` [Compound B48, (Z)-2-[(1H-Indazol-3-yl)methylene]-6-methoxy-7-[3-(piperazin-1-yl)propyl]benzofuran-3(2H)-one] were 75% and 96%.
Take `COc1ccc2c(c1C#CCCN1CCNCC1)O/C(=C\c1n[nH]c3ccccc13)C2=O` [Compound B49, (Z)-2-[(1H-Indazol-3-yl)methylene]-6-methoxy-7-[4-(piperazin-1-yl)but-1-ynyl]benzofuran-3(2H)-one]: at 0.1 µM the inhibition against pim-1 kinase (Table 2) was 63%. Moreover, 1 µM produced 93% inhibition in experiment [1] (Table 7).
The corresponding values for `COc1ccc2c(c1/C=C\CCN1CCNCC1)O/C(=C\c1n[nH]c3ccccc13)C2=O` [Compound B50, (Z)-2-[(1H-Indazol-3-yl)methylene]-6-methoxy-7-[(Z)-4-(piperazin-1-yl)but-1-enyl]benzofuran-3(2H)-one] are 82% and 96%.
